Measurements as given in the NIST ThermoML archive (doi:10.1016/j.jct.2011.09.001).

Columns and labels:
[1] = 101 kPa, Liquid; for speed of sound: Sing-around technique in a fixed-path interferometer; for mass density: Vibrating tube method
[2] = refractive index (Na D-line) (dimensionless); conditions: 101.33 kPa, Liquid, Standard Abbe refractometry
[3] = xn = mol fraction of the nth substance listed; conditions: 101 kPa, Liquid, x2 = 0; for speed of sound: Sing-around technique in a fixed-path interferometer; for mass density: Vibrating tube method
[4] = refractive index (Na D-line) (dimensionless); xn = mol fraction of the nth substance listed; conditions: 101 kPa, Liquid, Standard Abbe refractometry, x2 = 0

c1ccc2c(c1)CCCC2 [1,2,3,4-tetrahydronaphthalene]
Conditions	mass density, [1] [kg/m3]	refractive index, [2]	speed of sound, [1] [m/s]
293.15 K	969.5	1.5414	1489.5
303.15 K	961.6	1.5367	1450.1
313.15 K	953.7	1.5321	1411.5
323.15 K	945.7	1.5274	1373.6
333.15 K	937.8	1.5228	1336.4
343.15 K	929.8	1.518	1299.8

CCCCCCCCCC [decane]
Conditions	mass density, [1] [kg/m3]	refractive index, [2]	speed of sound, [1] [m/s]
293.15 K	730.1	1.4123	1254.6
303.15 K	722.6	1.4079	1215.1
313.15 K	714.9	1.4033	1176.1
323.15 K	707.3	1.3987	1137.6
333.15 K	699.5	1.3942	1099.8
343.15 K	691.8	1.3893	1062.3

CCCCCCCCCC [decane] + c1ccc2c(c1)CCCC2
Conditions	mass density, [3] [kg/m3]	refractive index, [4]	speed of sound, [3] [m/s]
293.15 K	730.1	1.4123	1254.6
303.15 K	722.6	1.4079	1215.1
313.15 K	714.9	1.4033	1176.1
323.15 K	707.3	1.3987	1137.6
333.15 K	699.5	1.3942	1099.8
343.15 K	691.8	1.3893	1062.3
